Patent publication US10145845B2, “On-chip assay for environmental surveillance” (priority 2015, dated 2018)

How the values were obtained:
[1] = tested on: RAD54 protein; conditions: yeast cells, H2O2 170, 1700 and 17,000 ppm for 60 minutes
[2] = drafted three tiered IDLHs; cited from earlier work

OO [H2O2, Hydrogen peroxide]
peak intensity of protein measured at 1390 cm^-1 (carboxylic band, SLISA) [1]: dose-dependent increase
increase in RAD54 expression as compared to control (baseline expression by cells with no toxin exposure) ([1]; SLISA and ELISA): ~4 fold
IDLH tier II (lethal, long-lasting disabling effect) [2]: ≤ 1000 ppm
IDLH tier III (lethal, life-threatening effect or even death) [2]: > 1000 ppm
